The values that follow come from patent US6248738A, “Isoquinolines as urokinase inhibitors” (Pfizer Inc., priority 1997, dated 2001).

In assay [1] the test system is tumour metastasis. Particulars: literature; cited from earlier work.
In assay [2] the test system is angiogenesis/capillary network formation. Particulars: literature; cited from earlier work.
Assay [3] has as its target T1, human urokinase (Homo sapiens, UniProt P00749).
T1 construct: the urokinase used was HMWT Human Urokinase (Calbiochem 672081); purchased Calbiochem 672081
The assay can be described thus: Inhibition of human urokinase (HMWT human urokinase, substrate S-2444). The assay is classed as biochemical. Particulars: S-2444 substrate, read-out: Ki uPA.

Assay [4] concerns the target human tPA (Homo sapiens, UniProt P00750). The assay can be described thus: Inhibition of human tPA (substrate S-2288, tPA stimulator). The assay is classed as biochemical. Particulars: selectivity for uPA over human tPA.
Assay [5] has as its target human plasmin (Homo sapiens, UniProt P00747). The assay can be described thus: Inhibition of human plasmin (substrate Chromozym-PL). Particulars: selectivity for uPA over human plasmin. The format is biochemical.

The structures appear in SMILES notation.

Sequence of human plasmin (P00747 97-810): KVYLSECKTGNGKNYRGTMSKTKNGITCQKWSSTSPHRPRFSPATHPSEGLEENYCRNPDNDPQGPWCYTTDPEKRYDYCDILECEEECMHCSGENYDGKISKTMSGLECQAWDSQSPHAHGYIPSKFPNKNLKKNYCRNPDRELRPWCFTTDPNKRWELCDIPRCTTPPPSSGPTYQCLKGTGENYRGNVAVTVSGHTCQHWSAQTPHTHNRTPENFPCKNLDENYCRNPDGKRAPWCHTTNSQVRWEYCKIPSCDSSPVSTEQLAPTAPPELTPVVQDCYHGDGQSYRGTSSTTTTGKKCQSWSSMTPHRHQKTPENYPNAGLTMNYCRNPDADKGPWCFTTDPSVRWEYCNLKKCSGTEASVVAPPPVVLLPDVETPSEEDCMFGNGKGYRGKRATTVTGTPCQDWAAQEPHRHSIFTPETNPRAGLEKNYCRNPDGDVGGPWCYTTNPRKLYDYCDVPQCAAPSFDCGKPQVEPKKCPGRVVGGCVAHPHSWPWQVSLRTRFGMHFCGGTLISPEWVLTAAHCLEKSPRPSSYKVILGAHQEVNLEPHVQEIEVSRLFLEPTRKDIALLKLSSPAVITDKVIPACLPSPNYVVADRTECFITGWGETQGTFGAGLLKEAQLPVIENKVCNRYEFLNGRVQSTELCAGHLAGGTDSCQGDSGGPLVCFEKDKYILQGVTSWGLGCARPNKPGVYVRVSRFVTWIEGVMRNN
Sequence of human tPA (P00750 33-562): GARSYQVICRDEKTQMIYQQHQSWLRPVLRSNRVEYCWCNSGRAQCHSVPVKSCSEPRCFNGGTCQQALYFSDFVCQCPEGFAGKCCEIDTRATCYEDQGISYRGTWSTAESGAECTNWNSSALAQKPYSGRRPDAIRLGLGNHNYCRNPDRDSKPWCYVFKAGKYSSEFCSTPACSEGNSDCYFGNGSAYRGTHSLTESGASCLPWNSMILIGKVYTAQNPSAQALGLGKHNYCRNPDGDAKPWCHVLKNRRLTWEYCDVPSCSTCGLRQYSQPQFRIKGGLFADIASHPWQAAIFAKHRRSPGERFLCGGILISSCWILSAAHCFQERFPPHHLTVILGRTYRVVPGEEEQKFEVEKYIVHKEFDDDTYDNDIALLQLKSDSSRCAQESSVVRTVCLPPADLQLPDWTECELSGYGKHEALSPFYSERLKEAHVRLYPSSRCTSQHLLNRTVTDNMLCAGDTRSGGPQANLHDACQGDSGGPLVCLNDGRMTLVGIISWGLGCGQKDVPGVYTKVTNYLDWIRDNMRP

On to `N=C(N)NC(=O)c1nc(Cl)c(N)nc1N` [Amiloride], for which the “inhibition of tumour metastasis/invasion in vivo” value in assay [1] is “inhibit tumour metastasis in vivo”. In assay [2], the “inhibition of angiogenesis/capillary network formation in vitro” value is given as “angiogenesis/capillary network formation in vitro”.
The term Ki denotes the dissociation constant of the complex between target and ligand, obtained from inhibition or displacement. Turning to `NC(N)=Nc1nccc2ccc(Br)cc12` [Example 15], in assay [3], the Ki came to 249 nM. Moreover, the “vs. tPA* (selectivity figures)” value in assay [4] is on record as 380. In addition, in assay [5], the “vs. plasmin* (selectivity figures)” value was determined as 204.
Turning to `NC(N)=Nc1nccc2ccc(/C=C/c3ccccc3)cc12` [Example 19], the Ki in assay [3] turned out to be 400 nM. For the same compound, the “vs. tPA* (selectivity figures)” value in assay [4] was 88. For the same compound, the “vs. plasmin* (selectivity figures)” value in assay [5] amounted to 68.
